From ChEMBL document CHEMBL1201862, “PubChem BioAssay data set” (2004)
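Compound exposure: 48 hours, 5 concentrations, 96-well plates. The concentration for 50% growth inhibition is given as GI50.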 Calls of active or inactive are those of the source. Rule as the data show it: active = GI50 up to about 1.1 µM and inactive = higher.

Columns and labels:
Assay in all cases: NCI tumour cell line growth inhibition, 48 h
786-0 = tested on: 786-0
A549 = tested on: A549
ACHN = tested on: ACHN
BT-549 = tested on: BT-549
CAKI-1 = tested on: CAKI-1
COLO 205 = tested on: COLO 205
HL-60 = tested on: HL-60
HOP-92 = tested on: HOP-92
KM12 = tested on: KM12
MCF7 = tested on: MCF7
MDA-MB-231 = tested on: MDA-MB-231
MOLT-4 = tested on: MOLT-4
OVCAR-3 = tested on: OVCAR-3
PC-3 = tested on: PC-3
SF-268 = tested on: SF-268
SF-295 = tested on: SF-295
SN12C = tested on: SN12C
SNB-75 = tested on: SNB-75
SR = tested on: SR
UACC-257 = tested on: UACC-257

SMILES	GI50 (786-0)	GI50 (A549)	GI50 (ACHN)	GI50 (BT-549)	GI50 (CAKI-1)	GI50 (COLO 205)	GI50 (HL-60)	GI50 (HOP-92)	GI50 (KM12)	GI50 (MCF7)	GI50 (MDA-MB-231)	GI50 (MOLT-4)	GI50 (OVCAR-3)	GI50 (PC-3)	GI50 (SF-268)	GI50 (SF-295)	GI50 (SN12C)	GI50 (SNB-75)	GI50 (SR)	GI50 (UACC-257)
O=C1c2cc([N+](=O)[O-])cnc2S(=O)(=O)N1c1ccc(Br)cc1	> 100 µM (inactive)	> 100 µM (inactive)	> 100 µM (inactive)	> 100 µM (inactive)	> 100 µM (inactive)	> 100 µM (inactive)	> 100 µM (inactive)	> 100 µM (inactive)	> 100 µM (inactive)	> 100 µM (inactive)	> 100 µM (inactive)	> 100 µM (inactive)	> 100 µM (inactive)	> 100 µM (inactive)	> 100 µM (inactive)	> 100 µM (inactive)	> 100 µM (inactive)	> 100 µM (inactive)	> 100 µM (inactive)	> 100 µM (inactive)
COC(=O)C(Cc1ccccc1)NC(=O)CNC(=O)CSc1nnc(COc2ccc(Cl)cc2)n1-c1ccccc1 (stereo not drawn)	16.7 µM (inactive)	17.8 µM (inactive)	14.2 µM (inactive)	18.7 µM (inactive)	12.7 µM (inactive)	16.2 µM (inactive)	4.8 µM (inactive)	17.4 µM (inactive)	18.7 µM (inactive)	18.2 µM (inactive)	17 µM (inactive)	3.55 µM (inactive)	16.7 µM (inactive)	17.1 µM (inactive)	17.1 µM (inactive)	17.8 µM (inactive)	17.9 µM (inactive)	17.9 µM (inactive)	2.64 µM (inactive)	15.2 µM (inactive)
Cc1ccc2c(c1)C(=O)/C(=C\c1ccc(Cl)cc1)CCS2(=O)=O	1.69 µM (inactive)	4.06 µM (inactive)	1.95 µM (inactive)	3.8 µM (inactive)	3.07 µM (inactive)	3.85 µM (inactive)	2.66 µM (inactive)	3.53 µM (inactive)	2.66 µM (inactive)	3.85 µM (inactive)	3.58 µM (inactive)	1.85 µM (inactive)	4.24 µM (inactive)	5.09 µM (inactive)	3.12 µM (inactive)	4.21 µM (inactive)	2.86 µM (inactive)	3.88 µM (inactive)	1.66 µM (inactive)	2.65 µM (inactive)
CCN(CC)CCC(=O)N1C/C(=C/c2ccccc2)C(=O)/C(=C\c2ccccc2)C1	2.16 µM (inactive)	4.76 µM (inactive)	2.78 µM (inactive)	0.363 µM (active)	2.3 µM (inactive)	2.31 µM (inactive)	0.383 µM (active)	4.52 µM (inactive)	0.541 µM (active)	0.372 µM (active)	0.845 µM (active)	0.28 µM (active)	3.06 µM (inactive)	1.06 µM (active)	2.04 µM (inactive)	2.11 µM (inactive)	1.3 µM (inactive)	4.08 µM (inactive)	0.344 µM (active)	2.1 µM (inactive)
COc1cc(NCc2ccc3nc(N)nc(N)c3c2C)cc(OC)c1OC	0.00106 µM (active)	0.0407 µM (active)	0.000395 µM (active)	0.685 µM (active)	0.194 µM (active)	1.07 µM (active)	0.043 µM (active)	0.75 µM (active)	0.0478 µM (active)	0.0308 µM (active)	4.03 µM (inactive)	0.025 µM (active)	0.288 µM (active)	0.000383 µM (active)	0.0258 µM (active)	0.0308 µM (active)	0.0316 µM (active)	4.37 µM (inactive)	0.000359 µM (active)	0.14 µM (active)
c1ccc2[nH]c(C3CCCCO3)nc2c1 (stereo not drawn)	> 100 µM (inactive)	> 100 µM (inactive)	> 100 µM (inactive)	> 100 µM (inactive)	> 100 µM (inactive)	> 100 µM (inactive)	> 100 µM (inactive)	> 100 µM (inactive)	50.4 µM (inactive)	> 100 µM (inactive)	> 100 µM (inactive)	> 100 µM (inactive)	> 100 µM (inactive)	> 100 µM (inactive)	> 100 µM (inactive)	> 100 µM (inactive)	> 100 µM (inactive)	> 100 µM (inactive)	> 100 µM (inactive)	> 100 µM (inactive)
CN(C)CCNC(=O)c1ccc(Cl)c2cc3ccccc3nc12	0.362 µM (active)	0.389 µM (active)	0.424 µM (active)	2.35 µM (inactive)	0.448 µM (active)	0.446 µM (active)	0.608 µM (active)	0.187 µM (active)	0.807 µM (active)	0.381 µM (active)	1.05 µM (active)	0.265 µM (active)	1.22 µM (inactive)	0.807 µM (active)	0.962 µM (active)	0.885 µM (active)	0.577 µM (active)	1.67 µM (inactive)	0.339 µM (active)	0.885 µM (active)
COC1=CC(=O)c2c(O)c3c(c(O)c2C1=O)C=C(C)OC3O (stereo not drawn)	3.24 µM (inactive)	1.42 µM (inactive)	2.1 µM (inactive)	2.07 µM (inactive)	3.52 µM (inactive)	0.222 µM (active)	0.731 µM (active)	6.84 µM (inactive)	2.21 µM (inactive)	0.39 µM (active)	1.76 µM (inactive)	1.58 µM (inactive)	1.03 µM (active)	2.64 µM (inactive)	2.18 µM (inactive)	2.09 µM (inactive)	0.877 µM (active)	1.57 µM (inactive)	1.84 µM (inactive)	0.24 µM (active)
O=C(Oc1cc(=O)c(OC(=O)c2ccccc2)co1)c1ccccc1	49.4 µM (inactive)	84.7 µM (inactive)	> 100 µM (inactive)	> 100 µM (inactive)	> 100 µM (inactive)	> 100 µM (inactive)	34.8 µM (inactive)	> 100 µM (inactive)	> 100 µM (inactive)	> 100 µM (inactive)	> 100 µM (inactive)	33.3 µM (inactive)	> 100 µM (inactive)	91 µM (inactive)	90.4 µM (inactive)	51.1 µM (inactive)	45.8 µM (inactive)	45.6 µM (inactive)	31.7 µM (inactive)	> 100 µM (inactive)
COc1ccc(Nc2c(C#N)c3n(c4ccccc24)c2ccccc2[n+]3C)cc1OC	2.12 µM (inactive)	3.03 µM (inactive)	1.96 µM (inactive)	7.33 µM (inactive)	1.93 µM (inactive)	2.19 µM (inactive)	3.84 µM (inactive)	9.44 µM (inactive)	3.98 µM (inactive)	1.99 µM (inactive)	1.73 µM (inactive)	1.68 µM (inactive)	3.52 µM (inactive)	2.33 µM (inactive)	1.76 µM (inactive)	2.77 µM (inactive)	1.27 µM (inactive)	3.43 µM (inactive)	6.46 µM (inactive)	3.78 µM (inactive)
CC1(C)CC2(C)ON=C(c3ccccc3)N2c2ccccc2N1 (stereo not drawn)	23.3 µM (inactive)	25.1 µM (inactive)	19.5 µM (inactive)	17.8 µM (inactive)	20.8 µM (inactive)	19.5 µM (inactive)	19.7 µM (inactive)	21.6 µM (inactive)	30.6 µM (inactive)	22.2 µM (inactive)	14.4 µM (inactive)	21.6 µM (inactive)	16.5 µM (inactive)	14.8 µM (inactive)	22.1 µM (inactive)	28.7 µM (inactive)	30.3 µM (inactive)	23.9 µM (inactive)	34.5 µM (inactive)	24.4 µM (inactive)
CC(C)=NC(C(=O)O)C(C)(C)S (stereo not drawn)	> 100 µM (inactive)	> 100 µM (inactive)	> 100 µM (inactive)	> 100 µM (inactive)	> 100 µM (inactive)	> 100 µM (inactive)	> 100 µM (inactive)	> 100 µM (inactive)	> 100 µM (inactive)	> 100 µM (inactive)	> 100 µM (inactive)	> 100 µM (inactive)	> 100 µM (inactive)	> 100 µM (inactive)	> 100 µM (inactive)	> 100 µM (inactive)	> 100 µM (inactive)	> 100 µM (inactive)	> 100 µM (inactive)	> 100 µM (inactive)
COC(=O)[C@](C)(Cc1ccccc1)NC(=O)[C@@H](C)N1[C@@H](c2ccccc2)COC1(C)C	72.4 µM (inactive)	63.8 µM (inactive)	36.7 µM (inactive)	48.2 µM (inactive)	82.2 µM (inactive)	20.1 µM (inactive)	63.5 µM (inactive)	36 µM (inactive)	22.2 µM (inactive)	52 µM (inactive)	47 µM (inactive)	34.4 µM (inactive)	37.6 µM (inactive)	29.1 µM (inactive)	85.7 µM (inactive)	53 µM (inactive)		14.4 µM (inactive)	27.5 µM (inactive)	53.7 µM (inactive)
Nc1nc2ccc(OCC(O)CN3CCCCC3)cc2[n+]([O-])n1 (stereo not drawn)	> 100 µM (inactive)	> 100 µM (inactive)	> 100 µM (inactive)	> 100 µM (inactive)	> 100 µM (inactive)	> 100 µM (inactive)	> 100 µM (inactive)	> 100 µM (inactive)	> 100 µM (inactive)	> 100 µM (inactive)	> 100 µM (inactive)	> 100 µM (inactive)	> 100 µM (inactive)	> 100 µM (inactive)		> 100 µM (inactive)	> 100 µM (inactive)	70.3 µM (inactive)	> 100 µM (inactive)	> 100 µM (inactive)
